From patent US9518254B2, “Compositions and methods for identifying enzyme and transport protein inhibitors” (San Diego State University Research Foundation, priority 2009, dated 2016)

Legend:
[1] = system: tet-responsive element (TRE) / rtTA; test: Doxycycline activation titration of clonal SupT1 cells (Tet-On induction of eGFP reporter); format: cell-based
Excerpt: To obtain an inducible cell line, we utilized the tetracycline inducible system (Tet-On). For this purpose we constructed two lentiviral vectors; one harboring a 7× Tetracycline Response Element (TRE) upstream the gene of interest and another expressing the reverse tet-transactivator (rtTA) coupled to an IRES-mCherry cassette to corroborate rtTA expression. In this system, the TRE element is bound and activated by rtTA only in the presence of an inducer (Tet or Dox). Gal4, PR/Gal4 and PRm/Gal4 were all transferred into the TRE inducible vector (see Figures).
In order to optimize the assay for maximal Gal4, PR/Gal4 or PRm/Gal4 induction, we analyzed the effect of increasing levels of Dox. Cells with 0, 50, 100, 250, 500, 750, 1,000, and 2,000 ng/mL Dox were either treated with 10 uM DMSO or 10 uM Indinavir and analyzed 32 hours later. TRE-Gal4 cells reached saturation with Doxycycline at about 1,000 ng/mL whether Indinavir was present or not. […] Again, as with transiently transfected 293 cells, TRE-PR/Gal4 cells had little to non-detectable eGFP expression at any given Dox concentration in the absence of 10 μM Indinavir.
(§1) FIG. 22 graphically illustrates data determining the optimal conditions for activating the assay to screen for PR inhibition. FIG. 22A graphically illustrates a Doxycycline titration. Clonal SupT1 cells harboring an inducible Gal4, PR/Gal4 or PRm/Gal4 were pre-incubated in a 96 well plate with either DMSO or 10 μM Indinavir and then either left untreated, or activated with […] of Dox. Cells were analyzed by flow cytometry and gated to determine the number of cells positive for eGFP expression. FIG. 22B graphically illustrates a time course of eGFP Induction in response to Doxycyline activation in the presence of DMSO or a PI. SupT1 clones harboring Gal4, PR/Gal4, or PRm/Gal4 were pre-incubated in a 96 well plate with either DMSO or 10 μM Indinavir and then activated with 1 μg/mL Dox. Cells were analyzed at either 4, 8, 12, 16, 20, 25, 50 or 75 hours by flow cytometry and gated for eGFP positive expression.

SupT1 cells [2] = settings: human, 50 h
Experimental: (§2) The range chosen extended from 1 nM to 20 μM.
(§3) The selected SupT1 clone expressing rtTA and mCherry, the 5×UAS-eGFP reporter and an inducible PR/Gal4 were activated with 1 μg/mL and incubated with various concentrations (1, 10, 50, 100, 500, 1000, 5000, 10000 or 20000 ng/mL) of an FDA approved PI: Either Amprenavir, Atazanavir, Darunavir, Indinavir, Lopinavir, Nelfinavir, Ritonavir, Saquinavir, or Tipranavir. Cells were then analyzed 50 hrs later for eGFP expression as determined by flow cytometry on a BD FACSAria.

HIV-1 protease (PR) [3] = format: cell-based
Excerpt: Finally, cells were infected with virus encoding the reporter, rtTA and inducible wild-type PR/Gal4 (pH-TRE-PR/Gal4) to test the ability for this system in T-cells to indicate the levels of PR activity.
Finally, individual cells from these sorted populations were sorted into a 96 well plate based on the lack of eGFP expression. Clonal cell lines obtained from this experiment were later activated under the same conditions described above, and screened for the individual clones which responded as desired (minimal background and maximal eGFP activation). […] These clones were then expanded and further tested in the following experiments.
To determine the optimal time point for the analysis of eGFP expression in the presence of inhibitor, cells were activated with Dox and analyzed by flow cytometry 4, 8, 12, 16, 20, 25, 50, or 75 hours later. Six-well plates containing 250K cells per well in 3 mL media were treated either with DMSO alone as control, or 1 μg/mL Dox and 10 μM Indinavir.
A 2 ml reaction containing 4 μl of 5 μg/mL Polybrene (Hexadimethrene Bromide, Sigma), 500K SupT1 cells in RPMI (10% FCS, L-glutamine, Pen-strep) and 250 μl frozen viral stocks was mixed, added to wells in 6-well plates, and spun in a hanging bucket rotors Becton Dickinson centrifuge at 1500 RPM, for 120′ at 32° C. Cells were re-suspended and placed in a 37° C. incubator for the analysis of expression at least 72 hours post-infection.
Flow Cytometry was performed on a BD FACSAria with 488 nm and 633 nm lasers. Data was collected on FACSDiva 6.1.1 software and then exported to FlowJo. eGFP expression was detected in the FITC channel and mCherry expression was detected on the PE-Texas-Red channel. Cells were first gated for size and granularity (FSC-A vs SSC-A) followed by doublet gating (FSC-A vs FSC-W and SSC-A vs. SSC-W). Sorted populations were gated on PE-TexasRed vs FITC plot. 250K cells were collected for each sample into 0.5 mL fetal calf serum (FCS) and 1 mL RPMI. Cells were then spun down at 1500 RPM and resuspended in fresh media in 6-well plates. Cells were allowed to grow for at least seven days to allow for expansion and loss of previously activated eGFP expression.
as §1

HIV-1 protease (PR) [4] = format: cell-based; settings: HEK293T cells pre-treated with 10 uM inhibitor, co-transfected with reporter and pcDNA-PR/Gal4
Experimental: It was of critical importance to verify the ability for the PR/Gal4 fusion to activate the reporter eGFP by the addition of PR inhibitors. For that purpose, 293T cells were pre-treated with 10 μM Indinavir and then co-transfected with reporter and pcDNA-PR/Gal4 vectors.
293T cells were transfected as follows. 15 μl of 2 mg/mL Polyethylenimine linear 25 kD (Polysciences, Inc.) were added to 125 μl of DMEM in a 1.8 ml Eppendorf tube. 3 μg of each DNA was added drop-wise to each tube. Tubes were mixed and incubated for 20 min at RT. This mixture was then added drop-wise to 293T cells in a 10 cm plate at ˜60-75% confluence. Cells were then analyzed by fluorescence microscopy and/or flow cytometry 24 hrs post transfection.
Top Panel: Fluorescence microscopy of eGFP expression in HEK293T cells 24 hours post transfection with the reporter vector (pFR), or co-transfection with the reporter vector plus either the Gal4, PR/Gal4, or PRm/Gal4 vectors. Bottom panel: HEK293T cells were analyzed by flow cytometry at 24 hours post transfection with the same conditions top panel. Gates were drawn to determine the ability to identify cells with an active PI. […] Quantification of eGFP expression in HEK293T transfected with various assay elements. The numbers of cells under various conditions were quantified for eGFP levels indicative of PR inhibition. Results shown are an average of 3 experiments.

HIV-1 protease (PR) [5] = format: cell-based; settings: SupT1 PR/Gal4 clone, 1 μg/mL Dox; for inhibitor concentration resulting in eGFP activation: analyzed 50 hrs later, range tested 1 nM to 20 μM
HIV-1 protease (PR) [6] = test: Expression of GFP-PR fusion in cells transfected with pcDNA-GFP-PR (fluorescence microscopy); format: cell-based; settings: inhibitor added at 0 and 24 h post transfection
Excerpt: In one embodiment, to achieve low levels of protease, e.g., PR, expression in mammalian cells, a tetracycline (Tet) inducible system is used. FIG. 3 illustrates by fluorescence microscopy use of an exemplary vector of the invention, a Tet-inducible HIV-based self-inactivating vector, that allows regulated expression of the gene of interest. In this case, we have used the enhanced green fluorescent protein (eGFP) as the ectopic gene. This vector allows different levels of protein expression. Tight repression and expression of PR at low levels may be crucial to avoid the possible side effects of PR. […] FIG. 3 illustrates by fluorescence microscopy HeLa cells infected with a Tet inducible HIV-based self-inactivating vector. The cells were incubated with 1 μg/ml Tet and eGFP expression was observed by fluorescence microscopy 24 and 72 h post addition of Tet. […]
In summary, FIG. 4 illustrates fluorescent microscopy analysis of cells transfected with pcDNA control (Invitrogen) and pcDNA-GFP-PR. GFP expression was analyzed 24 h post transfection. […]
In summary, FIG. 5 graphically illustrates flow cytometry analysis of cells expressing PR-GFP fusion. Cells transfected with pcDNA (control) or pcDNA-GFP-PR fusions were collected 48 hr post-transfection and analyzed for GFP expression. […]

SupT1 cells [7] = test: Cell death in reporter SupT1 T-cell clones incubated with PR inhibitors; settings: SupT1 PR/Gal4 clone, 50 hrs
Experimental: as §2, §3

C[C@H]1c2cccc(O)c2C(=O)C2=C(O)[C@]3(O)C(=O)C(C(N)=O)=C(O)[C@@H](N(C)C)[C@@H]3[C@@H](O)[C@@H]21 [Doxycycline]
Dox concentration at saturation of eGFP induction ([1]; TRE-Gal4 cells, with or without 10 uM Indinavir, 32 hours): about 1,000 ng/mL
Dox concentration at maximal eGFP induction ([1]; TRE-PR/Gal4 cells pre-incubated with 10 μM Indinavir, 32 hours): around 500 ng/mL
Dox concentration at saturation of eGFP induction ([1]; TRE-PRm/Gal4 cells, uninhibited and Indinavir-treated, 32 hours): around 250 ng/mL
Dox concentration at which activation is saturated ([1]; clonal SupT1 cells pre-incubated with DMSO or 10 μM Indinavir): around 1 μg/mL

Cc1cccc(C)c1OCC(=O)N[C@@H](Cc1ccccc1)[C@@H](O)C[C@H](Cc1ccccc1)NC(=O)[C@H](C(C)C)N1CCCNC1=O [Lopinavir]
concentration resulting in significant cell death, with decline in number of eGFP positive cells (SupT1 cells [2]): around 1 uM

CC(C)(C)NC(=O)[C@@H]1CN(Cc2cccnc2)CCN1C[C@@H](O)C[C@@H](Cc1ccccc1)C(=O)N[C@H]1c2ccccc2C[C@H]1O [Indinavir]
activation of PR/Gal4 clones (GFP positive) (HIV-1 protease (PR) [3]; SupT1 PR/Gal4 clones, Dox 1 μg/mL, PI 10 μM): ~90%
time of initial induction of eGFP expression (HIV-1 protease (PR) [3]; SupT1 clone, 1 μg/mL Dox and 10 μM inhibitor): 8 h
eGFP expression (positive cells) by 50 hours (HIV-1 protease (PR) [3]; SupT1 clone, 1 μg/mL Dox and 10 μM inhibitor, 50 hours): ~100%
time at which activation of clones reaches max (HIV-1 protease (PR) [3]; clonal SupT1 cells in 96-well plates, pre-incubation with 10 μM PI, Dox activation): around 48 hrs
eGFP induction in presence of inhibitor (HIV-1 protease (PR) [3]; non-clonal SupT1 cells with reporter, rtTA and pH-TRE-PR/Gal4, 1 μg/mL Dox and 10 μM inhibitor): large induction of eGFP expression
eGFP induction by PR/Gal4 fusion in presence of inhibitor (HIV-1 protease (PR) [4]): drastic induction
inhibitor concentration inducing nearly full activation of eGFP reporter (HIV-1 protease (PR) [5]; 50 hrs): 5 µM
level of reporter activation at low concentrations (HIV-1 protease (PR) [5]; 50 hrs, compared with the other FDA-approved PIs): lowest levels of reporter activation at low concentrations

CC(C)CN(C[C@@H](O)[C@H](Cc1ccccc1)NC(=O)O[C@H]1CO[C@H]2OCC[C@H]21)S(=O)(=O)c1ccc(N)cc1 [Darunavir]
inhibitor concentration resulting in eGFP activation (HIV-1 protease (PR) [5]): 1 nM

CCC[C@@]1(CCc2ccccc2)CC(O)=C([C@H](CC)c2cccc(NS(=O)(=O)c3ccc(C(F)(F)F)cn3)c2)C(=O)O1 [Tipranavir]
inhibitor concentration inducing nearly full activation of eGFP reporter (HIV-1 protease (PR) [5]; 50 hrs): 5 µM

CC(C)(C)NC(=O)[C@@H]1C[C@@H]2CCCC[C@@H]2CN1C[C@@H](O)[C@H](Cc1ccccc1)NC(=O)[C@H](CC(N)=O)NC(=O)c1ccc2ccccc2n1 [Saquinavir]
expression of N-terminal GFP-PR fusion in presence of inhibitor (HIV-1 protease (PR) [6]): highly expressed
concentration with significant decline in the number of eGFP positive cells (cell death) (SupT1 cells [7]): 20 µM

Cc1c(O)cccc1C(=O)N[C@@H](CSc1ccccc1)[C@H](O)CN1C[C@H]2CCCC[C@H]2C[C@H]1C(=O)NC(C)(C)C [Nelfinavir]
concentration resulting in significant cell death, with decline in number of eGFP positive cells (SupT1 cells [2]): around 1 uM

COC(=O)N[C@H](C(=O)N[C@@H](Cc1ccccc1)[C@@H](O)CN(Cc1ccc(-c2ccccn2)cc1)NC(=O)[C@@H](NC(=O)OC)C(C)(C)C)C(C)(C)C [Atazanavir]
inhibitor concentration resulting in eGFP activation (HIV-1 protease (PR) [5]): 1 nM
